Reference: patent US10618930B2, “Compounds for the treatment of cancer” (Eisai R&D Management Co., Ltd., priority 2017, dated 2020)
Read-outs that look alike come from different tables or passages of the source.

How the values were obtained:
Human STING = Human STING (Homo sapiens, UniProt Q86WV6); assay: Human STING reporter assay, Tables 6-8 (variant named only in a drawing); details: read-out: Human STING EC50 (μM)
[1] = tested on: primary human PBMC IFNβ protein production; assay: Ex vivo human PBMC stimulation assay, IFNβ protein; assay type: cell-based; details: average of five donors
Description: After 24 hours of incubation the tubes were centrifuged at 1400 rpm for 5 minutes and supernatants were harvested. Supernatant were stored in −80° C. for subsequent IFNβ measurement. IFNβ measurement was done using Human IFN-β Base Kit (Meso Scale Diagnostics cat # K151ADA) and protocol provided by manufacturer was used. IFN-beta estimation was done by reading assay plate at MESO SECTOR Imager 2400 and using MSD Discovery Workbench 4.0 program. After 24 hours IFNβ protein was analyzed.
Results shown in Table 10 reflect an average of measurements conducted using five different donors.

[2] = tested on: hepatocytes of CD-1 mouse; assay: Hepatocyte incubation, metabolite identification (mouse); assay type: in vitro ADME; details: 10 μmol/L
Description: (§1) Prior to incubations, the cryopreserved hepatocytes were thawed in a water bath at 37° C. One tube of cryopreserved hepatocytes was added to each 50-mL conical tube of cryopreserved hepatocyte recovery medium (UCRM) obtained from In Vitro ADMET Laboratories (Columbia, Md.). The cells were spun in a Beckman centrifuge (Brea, Calif.) with a GH 3.8 rotor at 740 rpm for 10 minutes at […]. The supernatant was removed and the cells were re-suspended in plating media for counting. After the cells were re-suspended in plating media, 20 μL of the re-suspension was transferred and mixed with 20 μL of AOPI staining solution. The solution was gently mixed and cells were counted using a Cellometer (Nexcelom, Lawrence, Mass.). After counting, the cells were then re-suspended at 1 or 2 million viable cells/mL in Williams' E media containing 2 mmol/L L-glutamine (pH 7.4).
(§2) The hepatocyte suspension (50 μL/well) was added into a 48-well plate. […]
(§3) The LC-MS/MS system was composed of a Shimadzu HPLC and an AB-SCIEX TripleTOF 5600 hybrid quadrupole and TOF mass spectrometer (Framingham, Mass.). […] The samples obtained from incubations with hepatocytes were analyzed under both negative and positive scan modes. […]

[3] = tested on: hepatocytes of Sprague Dawley rat; assay: Hepatocyte incubation, metabolite identification (rat); assay type: in vitro ADME; details: 10 μmol/L
Description: as §1, §2, §3

[4] = tested on: hepatocytes of Beagle dog; assay: Hepatocyte incubation, metabolite identification (dog); assay type: in vitro ADME; details: 10 μmol/L
Description: as §1, §2, §3

[5] = tested on: hepatocytes of Cynomolgus monkey; assay: Hepatocyte incubation, metabolite identification (monkey); assay type: in vitro ADME; details: 10 μmol/L
Description: as §1, §2, §3

hepatocytes of human = assay: Hepatocyte incubation, metabolite identification (human); assay type: in vitro ADME; details: 10 μmol/L
Description: as §1, §2, §3

CT26 tumors = assay: CT26 dual tumor model (mouse colon cancer model)
Description: For study B, treatment was started 8 days (0.6 mg/kg, and 10 mg/kg) after the tumor implantation, when the average tumors reached approximately 120 mm^3.
All the mice in the study have two subcutaneous CT26 tumors. The “treated tumor” indicates the tumor with compound direct administration, while “untreated tumor” indicates the tumor without direct compound administration. Tumor volume was followed throughout the experiment. Tumor volume is measured two times weekly after the start of treatment. Tumor burden is calculated from caliper measurements by the formula for the volume of a prolate ellipsoid (L×W^2)/2 where L and W are the respective orthogonal length and width measurements (mm).

REF Human STING = REF Human STING (Homo sapiens, UniProt Q86WV6); assay: STING variant specific reporter assay, REF-STING (THP1-Dual KO-STING cells); details: read-out: Human STING EC50 (μM) REF; Table 5; ammonium salt form of each compound
REF Human STING, sequence (Q86WV6 whole entry): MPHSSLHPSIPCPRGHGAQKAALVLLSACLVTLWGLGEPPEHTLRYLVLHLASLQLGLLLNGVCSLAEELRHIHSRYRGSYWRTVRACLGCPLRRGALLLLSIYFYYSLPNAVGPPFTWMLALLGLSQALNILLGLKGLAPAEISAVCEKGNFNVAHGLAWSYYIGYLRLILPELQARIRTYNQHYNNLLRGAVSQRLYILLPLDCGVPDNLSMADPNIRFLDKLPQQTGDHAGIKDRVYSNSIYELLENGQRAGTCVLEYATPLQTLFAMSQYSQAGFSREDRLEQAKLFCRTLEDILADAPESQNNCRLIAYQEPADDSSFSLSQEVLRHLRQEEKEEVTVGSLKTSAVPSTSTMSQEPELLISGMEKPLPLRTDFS

[6] = Table 6, head only in drawing 188, ammonium salt form except Compounds 26, 33, 34 (bis-TEA salts)

Human STING, sequence (Q86WV6 whole entry): as above

O=[P@]1(S)OC[C@H]2OC3[C@H](F)[C@@H]2O[P@](=O)(S)OC[C@H]2O[C@H]([C@H](F)[C@@H]2O1)n1cnc2c(ncnc21)NCC1NC1CNc1ncnc2c1ncn23 (single isomer, unassigned) [Compound 35]
EC50 (Human STING; [6]): 67.2 µM

O=[P@@]1(S)OC[C@H]2O[C@@H]3[C@H](F)[C@@H]2O[P@](=O)(S)OC[C@H]2OC([C@H](F)[C@@H]2O1)n1cnc2c(ncnc21)OC/C=C/COc1ncnc2c1ncn23 [Compound 26]
EC50 (Human STING; [6]): 7.4 µM

O=[N+]([O-])c1ccccc1CS[P@]1(=O)OC[C@H]2O[C@@H]3[C@H](F)[C@@H]2O[P@](=O)(SCc2ccccc2[N+](=O)[O-])OC[C@H]2O[C@H]([C@H](F)[C@@H]2O1)n1cnc2c(ncnc21)OCC=CCOc1ncnc2c1ncn23
ring closure, yield of all isomers (from C=CCOc1ncnc2c1ncn2[C@@H]1O[C@@H]2CO[P@@](=O)(SCc3ccccc3[N+](=O)[O-])O[C@H]3[C@@H](F)[C@H](n4cnc5c(OCC=C)ncnc54)O[C@@H]3CO[P@@](=O)(SCc3ccccc3[N+](=O)[O-])O[C@H]2[C@H]1F, rcm bond): 3.6%

O=P1(O)OC[C@H]2OC3[C@H](F)[C@@H]2O[P@](O)(=S)OC[C@H]2O[C@H]([C@H](F)[C@@H]2O1)n1cnc2c(ncnc21)NC/C=C/CNc1ncnc2c1ncn23 [Compound 28]
EC50 (Human STING): 18.4 µM

C=CCN(C(=O)c1ccccc1)c1ncnc2c1ncn2[C@@H]1O[C@@H]2COP(=S)(OCCC#N)O[C@H]3[C@@H](F)[C@H](n4cnc5c(N(CC=C)C(=O)c6ccccc6)ncnc54)O[C@@H]3COP(=O)(S)O[C@H]2[C@H]1F (stereo partly drawn)
ring closure, yield of all isomers (from C=CCN(C(=O)c1ccccc1)c1ncnc2c1ncn2[C@@H]1O[C@H](COP(=S)(OCCC#N)O[C@H]2[C@@H](F)[C@H](n3cnc4c(N(CC=C)C(=O)c5ccccc5)ncnc43)O[C@@H]2CO)[C@@H](O[PH](=O)O)[C@H]1F, other bond, 2 steps): 100%

O=C(c1ccccc1)N1CC=CCOc2ncnc3c2ncn3[C@@H]2O[C@@H]3COP(=O)(SCc4ccccc4[N+](=O)[O-])O[C@H]4[C@@H](F)[C@@H](O[C@@H]4COP(=O)(SCc4ccccc4[N+](=O)[O-])O[C@H]3[C@H]2F)n2cnc3c1ncnc32 (stereo partly drawn)
ring closure, yield of all isomers (from C=CCOc1ncnc2c1ncn2[C@@H]1O[C@@H]2COP(=O)(SCc3ccccc3[N+](=O)[O-])O[C@H]3[C@@H](F)[C@H](n4cnc5c(N(CC=C)C(=O)c6ccccc6)ncnc54)O[C@@H]3COP(=O)(SCc3ccccc3[N+](=O)[O-])O[C@H]2[C@H]1F, rcm bond): 25.6%

O=[P@]1(S)OC[C@H]2O[C@@H]3[C@H](F)[C@@H]2O[P@](=O)(S)OC[C@H]2O[C@H]([C@H](F)[C@@H]2O1)n1cnc2c(ncnc21)NC/C=C/CNc1ncnc2c1ncn23 [Compound 1a]
IFNβ ([1]; 0.1 μM, 24 hours): 21.3 ± 17.8 pg/mL | IFNβ ([1]; 10 μM, 24 hours): 540.2 ± 215.0 pg/mL | IFNβ [1]: 227.5 ± 62.4 pg/mL | metabolites identified (LC-MS/MS) ([2]; mouse hepatocytes): No apparent metabolite | stability in incubations with hepatocytes ([2]; mouse, up to 240 minutes): stable | metabolites identified (LC-MS/MS) ([3]; rat hepatocytes): No apparent metabolite | stability in incubations with hepatocytes ([3]; rat, up to 240 minutes): stable | metabolites identified (LC-MS/MS) ([4]; dog hepatocytes): No apparent metabolite | stability in incubations with hepatocytes ([4]; dog, up to 240 minutes): stable | metabolites identified (LC-MS/MS) ([5]; monkey hepatocytes): No apparent metabolite | stability in incubations with hepatocytes ([5]; monkey, up to 240 minutes): stable | metabolites identified (LC-MS/MS) (hepatocytes of human; human hepatocytes): No apparent metabolite | stability in incubations with hepatocytes (hepatocytes of human; human, up to 240 minutes): stable | cure rate, treated tumors (CT26 tumors; 0.6 mg/kg, intratumoral single dose (study B)): 20% | animals cured of treated tumor at the end of study (CT26 tumors; 10 mg/kg, intratumoral single dose (study B)): 100% | curative effects, untreated tumors (CT26 tumors; 10 mg/kg, intratumoral single dose into the other tumor): 80%

O=[N+]([O-])c1ccccc1CSP1(=O)OC[C@H]2O[C@H]([C@H](F)[C@@H]2O)n2cnc3c(ncnc32)CCC=CCCc2ncnc3c2ncn3[C@@H]2O[C@H](CO)[C@@H](O1)[C@H]2F (stereo partly drawn)
ring closure, yield of all isomers (from C=CCCc1ncnc2c1ncn2[C@@H]1O[C@H](COP(=O)(O[C@H]2[C@@H](F)[C@H](n3cnc4c(CCC=C)ncnc43)O[C@@H]2COC(c2ccccc2)(c2ccc(OC)cc2)c2ccc(OC)cc2)SCc2ccccc2[N+](=O)[O-])[C@@H](O)[C@H]1F, rcm bond, 2 steps): 26.2%

O=[P@]1(S)OC[C@H]2OC3[C@H](F)[C@@H]2O[P@](=O)(S)OC[C@H]2O[C@H]([C@H](F)[C@@H]2O1)n1cnc2c(ncnc21)NCC#CCNc1ncnc2c1ncn23 [Compound 29]
EC50 (Human STING; [6]): 8.4 µM

CC(C)(C)[Si](C)(C)O[C@H]1[C@H]2O[P@@](=O)(SCc3ccccc3[N+](=O)[O-])OC[C@H]3O[C@@H]4[C@H](F)[C@@H]3O[P@](=O)(SCc3ccccc3[N+](=O)[O-])OC[C@H]1O[C@H]2n1cnc2c(ncnc21)N(C(=O)c1ccccc1)CC=CCN(C(=O)c1ccccc1)c1ncnc2c1ncn24
ring closure, yield of all isomers (from C=CCN(C(=O)c1ccccc1)c1ncnc2c1ncn2[C@@H]1O[C@@H]2CO[P@](=O)(SCc3ccccc3[N+](=O)[O-])O[C@@H]3[C@H](O[Si](C)(C)C(C)(C)C)[C@@H](CO[P@@](=O)(SCc4ccccc4[N+](=O)[O-])O[C@H]2[C@H]1F)O[C@H]3n1cnc2c(N(CC=C)C(=O)c3ccccc3)ncnc21, rcm bond): 6.1%

CC(C)(C)[Si](C)(C)O[C@@H]1[C@@H]2N[P@@](=S)(OCCC#N)OC[C@H]3O[C@@H]4[C@H](O[Si](C)(C)C(C)(C)C)[C@@H]3N[P@](=S)(OCCC#N)OC[C@H]2O[C@H]1n1cnc2c(ncnc21)N(C(=O)c1ccccc1)CC=CCN(C(=O)c1ccccc1)c1ncnc2c1ncn24
ring closure, yield of all isomers (from C=CCN(C(=O)c1ccccc1)c1ncnc2c1ncn2[C@@H]1O[C@@H]2CO[P@@](=S)(OCCC#N)N[C@H]3[C@@H](O[Si](C)(C)C(C)(C)C)[C@H](n4cnc5c(N(CC=C)C(=O)c6ccccc6)ncnc54)O[C@@H]3CO[P@](=S)(OCCC#N)N[C@H]2[C@H]1O[Si](C)(C)C(C)(C)C, rcm bond): 24.5%

O=[P@]1(S)OC[C@H]2OC3[C@H](F)[C@@H]2O[P@](=O)(S)OC[C@H]2O[C@H]([C@H](F)[C@@H]2O1)n1cnc2c(ncnc21)NCC1NC1CNc1ncnc2c1ncn23 (single isomer, unassigned) [Compound 36]
EC50 (Human STING; [6]): 94.1 µM

O=P1(O)OC[C@H]2OC3[C@H](F)[C@@H]2O[P@@](O)(=S)OC[C@H]2O[C@H]([C@H](F)[C@@H]2O1)n1cnc2c(ncnc21)NC/C=C/CNc1ncnc2c1ncn23 [Compound 27]
EC50 (Human STING): 27.6 µM

O=C(c1ccccc1)N1CC=CCN(C(=O)c2ccccc2)c2ncnc3c2ncn3[C@@H]2O[C@@H]3CO[P@](=O)(SCc4ccccc4[N+](=O)[O-])O[C@H]4[C@@H](F)[C@@H](O[C@@H]4CO[P@@](=O)(SCc4ccccc4[N+](=O)[O-])O[C@H]3[C@H]2F)n2cnc3c1ncnc32
ring closure, yield of all isomers (from C=CCN(C(=O)c1ccccc1)c1ncnc2c1ncn2[C@@H]1O[C@@H]2CO[P@@](=O)(SCc3ccccc3[N+](=O)[O-])O[C@H]3[C@@H](F)[C@H](n4cnc5c(N(CC=C)C(=O)c6ccccc6)ncnc54)O[C@@H]3CO[P@](=O)(SCc3ccccc3[N+](=O)[O-])O[C@H]2[C@H]1F, rcm bond): 39%

O=P1(S)OC[C@H]2O[C@@H]3[C@H](F)[C@@H]2OP(=O)(S)OC[C@H]2OC([C@H](F)[C@@H]2O1)n1cnc2c(ncnc21)NCC/C=C/CNc1ncnc2c1ncn23 (single isomer, unassigned) [Compound 37]
EC50 (REF Human STING): > 100 µM
